The results in this text go back to ChEMBL document CHEMBL5260810, “Inhibition of bromodomain-containing protein 9 for the prevention of epigenetically-defined drug resistance” (Bioorg Med Chem Lett, 2017).

What is called IC50 is the midpoint of a concentration-inhibition curve. For orientation: Kd means the concentration at which binding is half-saturated. Higher therefore signals lower affinity. Usually inhibition stands for how much of the control response was suppressed. Low values mean little suppression, high ones strong suppression.

Test system in the first assay: not listed separately
Description: Cytotoxicity against human Ci-1 cells measured after 8 days. It is filed as functional, cell-based. Conditions: Ci-1, 192 h.
Compound `C/C=C/Cn1cc(-c2cc(OC)c(C(=O)N3CCOCC3)cc2OC)c2cc(C)[nH]c2c1=O` yielded an IC50 of 2000 nM.

For the next assay, the system named is NCI-H358. Description: Cytotoxicity against human NCI-H358 cells measured after 8 days. The settings on record: NCI-H358, 192 h. In kind it is functional, cell-based.
Regarding `C/C=C/Cn1cc(-c2cc(OC)c(C(=O)N3CCOCC3)cc2OC)c2cc(C)[nH]c2c1=O`, 2000 nM corresponded to half-maximal inhibition (IC50).

The target in another assay is Transcription initiation factor TFIID subunit 1 (Homo sapiens, UniProt P21675). Description: Binding affinity to human partial length TAF1 bromodomain 2 (D1521 to D1656 residues) expressed in bacterial expression system by BROMOscan assay.
Chain of Transcription initiation factor TFIID subunit 1 (P21675 whole entry, the tested form may be a part): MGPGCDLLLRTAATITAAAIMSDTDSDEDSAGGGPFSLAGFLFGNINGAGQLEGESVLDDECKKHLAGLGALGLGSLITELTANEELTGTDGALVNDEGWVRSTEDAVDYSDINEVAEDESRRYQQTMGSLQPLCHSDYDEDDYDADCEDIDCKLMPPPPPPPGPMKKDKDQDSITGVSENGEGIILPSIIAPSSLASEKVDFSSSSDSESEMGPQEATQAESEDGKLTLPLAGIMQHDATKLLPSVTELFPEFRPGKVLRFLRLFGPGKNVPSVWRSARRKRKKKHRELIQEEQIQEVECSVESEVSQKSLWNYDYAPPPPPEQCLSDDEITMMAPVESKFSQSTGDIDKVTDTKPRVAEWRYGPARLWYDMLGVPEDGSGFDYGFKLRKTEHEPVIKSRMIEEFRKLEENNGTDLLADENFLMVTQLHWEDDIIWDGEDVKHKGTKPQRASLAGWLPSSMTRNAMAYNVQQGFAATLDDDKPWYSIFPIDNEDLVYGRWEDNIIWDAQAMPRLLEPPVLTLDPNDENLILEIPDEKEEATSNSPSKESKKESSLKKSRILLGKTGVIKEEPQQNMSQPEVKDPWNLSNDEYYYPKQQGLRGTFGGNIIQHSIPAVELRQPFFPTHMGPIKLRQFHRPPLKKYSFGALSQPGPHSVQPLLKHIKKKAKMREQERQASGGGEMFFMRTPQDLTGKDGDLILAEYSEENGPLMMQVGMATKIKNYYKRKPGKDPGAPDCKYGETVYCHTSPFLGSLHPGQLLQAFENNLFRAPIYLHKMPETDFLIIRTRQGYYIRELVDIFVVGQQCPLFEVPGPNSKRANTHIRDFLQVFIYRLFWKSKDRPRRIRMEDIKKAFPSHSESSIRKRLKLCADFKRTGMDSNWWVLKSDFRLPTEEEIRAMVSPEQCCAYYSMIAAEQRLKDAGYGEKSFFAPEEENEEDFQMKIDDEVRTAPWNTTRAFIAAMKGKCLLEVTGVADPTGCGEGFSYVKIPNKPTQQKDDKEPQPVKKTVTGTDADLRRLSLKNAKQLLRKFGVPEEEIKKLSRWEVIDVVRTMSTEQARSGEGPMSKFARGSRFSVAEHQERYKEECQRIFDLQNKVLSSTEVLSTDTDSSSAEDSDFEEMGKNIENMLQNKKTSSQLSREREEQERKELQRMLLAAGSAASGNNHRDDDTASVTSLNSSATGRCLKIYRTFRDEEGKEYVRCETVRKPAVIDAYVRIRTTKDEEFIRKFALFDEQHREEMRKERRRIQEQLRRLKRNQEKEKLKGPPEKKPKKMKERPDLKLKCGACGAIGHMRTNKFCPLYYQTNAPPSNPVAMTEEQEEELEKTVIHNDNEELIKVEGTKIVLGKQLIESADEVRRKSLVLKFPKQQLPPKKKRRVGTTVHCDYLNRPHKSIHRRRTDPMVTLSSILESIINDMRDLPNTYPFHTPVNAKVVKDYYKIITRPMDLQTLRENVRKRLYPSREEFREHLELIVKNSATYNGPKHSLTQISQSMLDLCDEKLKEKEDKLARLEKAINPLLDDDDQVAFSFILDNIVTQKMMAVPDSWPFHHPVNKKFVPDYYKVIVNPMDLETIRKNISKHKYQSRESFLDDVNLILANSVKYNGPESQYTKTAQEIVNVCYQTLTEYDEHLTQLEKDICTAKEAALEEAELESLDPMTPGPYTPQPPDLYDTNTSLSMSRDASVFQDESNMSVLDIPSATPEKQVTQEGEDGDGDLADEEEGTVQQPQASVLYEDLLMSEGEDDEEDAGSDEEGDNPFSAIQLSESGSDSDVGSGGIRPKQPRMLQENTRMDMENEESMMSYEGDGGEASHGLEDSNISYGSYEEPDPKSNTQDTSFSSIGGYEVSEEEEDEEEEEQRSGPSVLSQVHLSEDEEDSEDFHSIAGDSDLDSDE
Details: not given
In turn, `C/C=C/Cn1cc(-c2cc(OC)c(C(=O)N3CCOCC3)cc2OC)c2cc(C)[nH]c2c1=O` came in with a Kd above 10 µM.

The next assay has as its system SU-DHL-16. Description: Cytotoxicity against human SU-DHL-16 cells measured after 8 days. It is filed as functional, cell-based. The settings on record: SU-DHL-16, 192 h.
`C/C=C/Cn1cc(-c2cc(OC)c(C(=O)N3CCOCC3)cc2OC)c2cc(C)[nH]c2c1=O` showed an IC50 of 2000 nM.

In a further assay the test system is HT-29. Description: Cytotoxicity against human HT-29 cells measured after 8 days. The settings on record: HT-29, 192 h. In kind it is functional, cell-based.
As to `C/C=C/Cn1cc(-c2cc(OC)c(C(=O)N3CCOCC3)cc2OC)c2cc(C)[nH]c2c1=O`, the IC50 is 2000 nM.

Test system in another assay: not listed separately
Description: Cytotoxicity against human KPL-4 cells measured after 8 days. It is filed as functional, cell-based. The settings on record: KPL4, 192 h.
On to `C/C=C/Cn1cc(-c2cc(OC)c(C(=O)N3CCOCC3)cc2OC)c2cc(C)[nH]c2c1=O`, for which the IC50 turned out to be 2000 nM.

The next assay concerns LCLC-103H cell line. Description: Cytotoxicity against human LCLC-103H cell line measured after 8 days. The settings on record: 192 h. In kind it is functional, cell-based.
Regarding `C/C=C/Cn1cc(-c2cc(OC)c(C(=O)N3CCOCC3)cc2OC)c2cc(C)[nH]c2c1=O`, the IC50 is 2000 nM.

The subject of another assay is HCC1143. Description: Cytotoxicity against human HCC1143 cells measured after 8 days. It is filed as functional, cell-based. The settings on record: HCC1143, 192 h.
`C/C=C/Cn1cc(-c2cc(OC)c(C(=O)N3CCOCC3)cc2OC)c2cc(C)[nH]c2c1=O` came in with an IC50 of 2000 nM.

Another assay relates to EOL1. Description: Cytotoxicity against human EOL1 cells measured after 8 days. The settings on record: EOL1, 192 h. In kind it is functional, cell-based.
As to `C/C=C/Cn1cc(-c2cc(OC)c(C(=O)N3CCOCC3)cc2OC)c2cc(C)[nH]c2c1=O`, the IC50 turned out to be 1340 nM.

The test system of the next assay is NCI-H2452. Description: Cytotoxicity against human NCI-H2452 cells measured after 8 days. It is filed as functional, cell-based. Conditions: NCI-H2452, 192 h.
In turn, `C/C=C/Cn1cc(-c2cc(OC)c(C(=O)N3CCOCC3)cc2OC)c2cc(C)[nH]c2c1=O` gave an IC50 of 2000 nM.

In the next assay the target is Bromodomain-containing protein 4 (Homo sapiens, UniProt O60885). Description: Binding affinity to BRD4 bromodomain 1/2 long isoform (unknown origin) by BROMOscan assay.
Details: not given
`C/C=C/Cn1cc(-c2cc(OC)c(C(=O)N3CCOCC3)cc2OC)c2cc(C)[nH]c2c1=O` registered a Kd above 10 µM.

Another assay has as its system K562. Description: Cytotoxicity against human K562 cells measured after 8 days. In kind it is functional, cell-based. Conditions: K562, 192 h.
Regarding `C/C=C/Cn1cc(-c2cc(OC)c(C(=O)N3CCOCC3)cc2OC)c2cc(C)[nH]c2c1=O`, the IC50 is 2000 nM.

Another assay deals with SW1573. Description: Cytotoxicity against human SW1573 cells measured after 8 days. Conditions: SW1573, 192 h. In kind it is functional, cell-based.
On to `C/C=C/Cn1cc(-c2cc(OC)c(C(=O)N3CCOCC3)cc2OC)c2cc(C)[nH]c2c1=O`, for which the IC50 amounted to 2000 nM.

Test system in a further assay: not listed separately
Description: Cytotoxicity against human KMM-1 cells measured after 8 days. The settings on record: KMM-1, 192 h. In kind it is functional, cell-based.
Compound `C/C=C/Cn1cc(-c2cc(OC)c(C(=O)N3CCOCC3)cc2OC)c2cc(C)[nH]c2c1=O` yielded an IC50 of 2000 nM.

The next assay concerns SW48. Description: Cytotoxicity against human SW48 cells measured after 8 days. It is filed as functional, cell-based. The settings on record: SW48, 192 h.
`C/C=C/Cn1cc(-c2cc(OC)c(C(=O)N3CCOCC3)cc2OC)c2cc(C)[nH]c2c1=O` had an IC50 of 2000 nM.

In the next assay the test system is WiDr. Description: Cytotoxicity against human WiDr cells measured after 8 days. In kind it is functional, cell-based. Conditions: 192 h.
In the case of `C/C=C/Cn1cc(-c2cc(OC)c(C(=O)N3CCOCC3)cc2OC)c2cc(C)[nH]c2c1=O`, the IC50 stood at 2000 nM.

Another assay addresses Adrenergic receptor alpha-2 (Rattus norvegicus) (UniProt P22086+P19328+P22909). Description: Displacement of [3H]-RX 821002 from rat alpha2 adrenoceptor at 10 uM after 60 mins by scintillation counting analysis relative to control. In kind it is protein assay.
Details: not given
On the technique in general: Displacement assays read how much labelled ligand stays bound in the presence of the test substance.
With `C/C=C/Cn1cc(-c2cc(OC)c(C(=O)N3CCOCC3)cc2OC)c2cc(C)[nH]c2c1=O`, the Activity was -12%.

For another assay, the target named is High affinity nerve growth factor receptor (Homo sapiens) (UniProt P04629). Description: Inhibition of TrkA (unknown origin) at 1 uM relative to control.
Chain of High affinity nerve growth factor receptor (Homo sapiens) (P04629 33-796 limits assumed): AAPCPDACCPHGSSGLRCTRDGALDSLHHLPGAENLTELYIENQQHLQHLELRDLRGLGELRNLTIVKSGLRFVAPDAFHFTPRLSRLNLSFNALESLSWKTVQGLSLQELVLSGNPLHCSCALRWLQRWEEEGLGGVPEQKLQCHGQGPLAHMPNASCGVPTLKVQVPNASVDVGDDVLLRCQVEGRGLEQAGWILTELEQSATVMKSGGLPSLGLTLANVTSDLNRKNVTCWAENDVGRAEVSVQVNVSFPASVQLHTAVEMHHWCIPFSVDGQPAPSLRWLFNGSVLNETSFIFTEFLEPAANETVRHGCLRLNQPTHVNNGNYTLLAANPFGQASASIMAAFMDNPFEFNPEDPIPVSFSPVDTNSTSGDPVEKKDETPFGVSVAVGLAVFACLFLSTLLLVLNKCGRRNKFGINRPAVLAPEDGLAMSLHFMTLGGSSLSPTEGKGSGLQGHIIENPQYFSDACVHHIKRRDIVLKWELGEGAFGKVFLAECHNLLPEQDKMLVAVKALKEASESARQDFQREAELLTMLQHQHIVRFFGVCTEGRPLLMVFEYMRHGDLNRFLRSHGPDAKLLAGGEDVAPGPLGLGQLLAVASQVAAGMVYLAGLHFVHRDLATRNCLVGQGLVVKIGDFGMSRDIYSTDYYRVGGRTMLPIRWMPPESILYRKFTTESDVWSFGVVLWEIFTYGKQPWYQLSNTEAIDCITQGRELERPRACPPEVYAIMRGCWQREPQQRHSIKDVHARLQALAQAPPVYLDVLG
Details: not given
On to `C/C=C/Cn1cc(-c2cc(OC)c(C(=O)N3CCOCC3)cc2OC)c2cc(C)[nH]c2c1=O`, for which the inhibition worked out at 12%.

A further assay concerns CAL-120. Description: Cytotoxicity against human CAL-120 cells measured after 8 days. It is filed as functional, cell-based. Conditions: CAL-120, 192 h.
`C/C=C/Cn1cc(-c2cc(OC)c(C(=O)N3CCOCC3)cc2OC)c2cc(C)[nH]c2c1=O` registered an IC50 of 2000 nM.
